Bridge positions count the residues as written; N and C are the ends. Peptide text beside a SMILES is read from it. * marks the point of attachment. Benzoyl(4-F) = O=C(c1ccc(F)cc1)*
Experiments:
[1] = biological target: integrin αvβ3 (Homo sapiens) (UniProt P06756); conditions: cited from earlier work
[2] = Biodistribution in nude mice bearing U87MG xenografts; assay type: in vivo, mouse; conditions: nude, mouse, iv, 740 KBq (20 uCi), total radioactivity, 0.5 h p.i., n = 3
[3] = test system: U87MG tumor bearing mice; assay: as above; assay type: in vivo, mouse; conditions: 330 μg c(RGDyK), 0.5 h p.i., P < 0.05
[4] = test system: U87MG tumor bearing mice; assay: Dynamic microPET scan of U87MG tumor-bearing mouse; assay type: in vivo; conditions: 35 min p.i., ROI analysis of the heart
[5] = test system: U87MG tumor bearing mice; assay: Static microPET imaging quantification; assay type: in vivo, mouse; conditions: quantification of microPET images
[6] = biological target: αvβ3 integrin; conditions: binding to αvβ3 integrin; cited from earlier work

Chain of UniProt P06756 (P06756 31-1048, chain 1 of 2): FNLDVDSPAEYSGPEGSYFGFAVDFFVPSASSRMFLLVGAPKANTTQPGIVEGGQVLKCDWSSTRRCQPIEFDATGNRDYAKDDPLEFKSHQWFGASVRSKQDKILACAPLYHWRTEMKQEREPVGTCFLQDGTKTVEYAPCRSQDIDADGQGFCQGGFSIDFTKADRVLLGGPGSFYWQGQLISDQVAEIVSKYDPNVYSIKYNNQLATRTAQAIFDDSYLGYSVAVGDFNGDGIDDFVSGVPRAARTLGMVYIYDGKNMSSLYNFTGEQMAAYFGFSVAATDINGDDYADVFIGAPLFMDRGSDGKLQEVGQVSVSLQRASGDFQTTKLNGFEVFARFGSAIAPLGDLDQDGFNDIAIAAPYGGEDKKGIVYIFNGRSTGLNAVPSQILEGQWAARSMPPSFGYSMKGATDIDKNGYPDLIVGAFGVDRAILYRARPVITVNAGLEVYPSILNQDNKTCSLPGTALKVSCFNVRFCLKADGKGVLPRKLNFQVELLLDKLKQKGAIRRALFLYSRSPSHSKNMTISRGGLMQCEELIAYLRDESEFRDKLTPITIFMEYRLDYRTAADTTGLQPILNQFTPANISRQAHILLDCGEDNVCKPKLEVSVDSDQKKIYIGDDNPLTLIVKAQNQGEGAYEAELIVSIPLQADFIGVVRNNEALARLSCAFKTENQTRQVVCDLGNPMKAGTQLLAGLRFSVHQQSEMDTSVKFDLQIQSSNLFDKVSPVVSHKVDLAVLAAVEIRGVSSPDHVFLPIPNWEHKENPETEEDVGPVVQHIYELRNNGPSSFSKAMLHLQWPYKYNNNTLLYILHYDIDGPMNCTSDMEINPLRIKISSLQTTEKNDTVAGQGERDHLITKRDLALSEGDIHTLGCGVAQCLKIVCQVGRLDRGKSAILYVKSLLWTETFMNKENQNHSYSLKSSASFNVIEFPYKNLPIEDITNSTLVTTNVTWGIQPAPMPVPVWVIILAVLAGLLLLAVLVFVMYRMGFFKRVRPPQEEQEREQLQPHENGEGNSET
Chain of UniProt P06756 (P05106 27-788, chain 2 of 2, further chain): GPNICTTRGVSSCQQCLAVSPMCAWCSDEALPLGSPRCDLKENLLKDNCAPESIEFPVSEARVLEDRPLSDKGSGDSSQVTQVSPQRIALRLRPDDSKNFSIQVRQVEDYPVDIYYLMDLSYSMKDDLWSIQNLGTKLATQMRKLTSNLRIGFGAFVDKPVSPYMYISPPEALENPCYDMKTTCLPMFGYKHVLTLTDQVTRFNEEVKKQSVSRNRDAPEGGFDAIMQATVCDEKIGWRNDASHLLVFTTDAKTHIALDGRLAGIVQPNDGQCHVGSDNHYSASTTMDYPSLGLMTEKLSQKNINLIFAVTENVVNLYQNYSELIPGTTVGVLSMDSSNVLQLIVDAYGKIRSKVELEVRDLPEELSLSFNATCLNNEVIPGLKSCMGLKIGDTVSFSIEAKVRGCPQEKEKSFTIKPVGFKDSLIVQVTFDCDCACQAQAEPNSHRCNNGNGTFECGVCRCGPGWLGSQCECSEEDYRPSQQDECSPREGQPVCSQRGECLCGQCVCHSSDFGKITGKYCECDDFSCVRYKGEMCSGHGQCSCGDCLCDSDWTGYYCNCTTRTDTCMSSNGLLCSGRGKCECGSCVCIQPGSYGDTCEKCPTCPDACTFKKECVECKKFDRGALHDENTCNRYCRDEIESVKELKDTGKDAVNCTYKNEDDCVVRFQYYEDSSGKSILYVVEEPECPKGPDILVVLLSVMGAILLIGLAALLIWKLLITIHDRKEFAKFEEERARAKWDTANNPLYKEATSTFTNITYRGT

Compound: Echistatin (from UniProt P17347)
- Kd [1]: 0.3 nM

Compound: CC(C)C[C@@H]1NC(=O)[C@@H]2CSSC[C@@H](C(=O)NCC(N)=O)NC(=O)[C@H](Cc3ccccc3)NC(=O)CNC(=O)[C@H](CC(N)=O)NC(=O)[C@@H]3CCCN3C(=O)CNC(=O)[C@@H]3CSSC[C@H](NC(=O)[C@H](CO)NC(=O)[C@H]([C@@H](C)O)NC(=O)[C@@H]4CCCN4C(=O)[C@H](C)NC(=O)[C@H](Cc4c[nH]c5ccccc45)NC(=O)[C@H](CC(=O)O)NC(=O)CNC(=O)[C@H](CCCNC(=N)N)NC(=O)CNC(=O)[C@H](CCC(N)=O)NC(=O)[C@@H]4CCCN4C(=O)[C@@H](NC(=O)CNC(=O)c4ccc(F)cc4)CSSC[C@H](NC(=O)CNC(=O)[C@H](C)NC1=O)C(=O)N[C@@H](C(C)C)C(=O)N3)C(=O)N[C@@H](CO)C(=O)N[C@@H](CCC(N)=O)C(=O)N[C@@H](CC(=O)O)C(=O)N[C@@H](CO)C(=O)N[C@@H](CC(=O)O)C(=O)N2 [^18F-FB-2.5D] ({Benzoyl(4-F)}-GCPQGRGDWAPTSCSQDSDCLAGCVCGPNGFCG-NH2; disulfide 2-24, 14-26, 20-32; C-terminus assumed)
- tissue uptake at 0.5 h ([2]; blood, blood radioactivity (biodistribution)): 1.32 ± 0.07 %ID/g
- tissue uptake at 0.5 h ([2]; kidney, kidney uptake (biodistribution)): 4.24 ± 0.19 %ID/g
- tissue uptake at 0.5 h ([2]; liver, liver uptake (biodistribution)): 1.38 ± 0.55 %ID/g
- inhibition of tumor uptake by co-injection of c(RGDyK) [3]: 70%
- radioactivity in blood relative to amount at 3 min p.i. [4]: approximately 9.2%
- activity remaining in tumor at 1 h p.i. compared to 0.5 h [5]: 56%

Compound: echistatin
- Kd [6]: ~0.3 nM
